ChEMBL document CHEMBL2429821, “A Casein kinase 1/Checkpoint kinase 1 pyrazolo-pyridine protein kinase inhibitor as novel activator of the p53 pathway” (Bioorg Med Chem Lett, 2013)

Assays:
[1] = target: T1, MAP kinase-activated protein kinase 5 (Homo sapiens) (UniProt Q8IW41); test: Inhibition of human PRAK assessed as residual activity at 1 uM relative to control
T1 sequence (whole entry): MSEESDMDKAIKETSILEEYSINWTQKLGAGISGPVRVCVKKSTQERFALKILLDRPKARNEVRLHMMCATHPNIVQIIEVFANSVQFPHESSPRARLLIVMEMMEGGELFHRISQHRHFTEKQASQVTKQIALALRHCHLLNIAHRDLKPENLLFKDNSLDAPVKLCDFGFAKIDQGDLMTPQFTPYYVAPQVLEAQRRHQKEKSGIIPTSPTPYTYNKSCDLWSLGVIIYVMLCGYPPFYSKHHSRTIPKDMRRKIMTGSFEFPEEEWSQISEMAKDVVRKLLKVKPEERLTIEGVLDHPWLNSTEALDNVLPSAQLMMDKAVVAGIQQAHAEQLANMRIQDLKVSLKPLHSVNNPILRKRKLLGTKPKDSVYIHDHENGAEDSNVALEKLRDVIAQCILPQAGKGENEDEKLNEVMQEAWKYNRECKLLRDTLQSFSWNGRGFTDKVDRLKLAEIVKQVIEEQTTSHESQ

[2] = target: Tyrosine-protein kinase Yes (Homo sapiens) (UniProt P07947); test: Inhibition of human YES1 assessed as residual activity at 10 uM relative to control
Tyrosine-protein kinase Yes (Homo sapiens), sequence (P07947 2-543 limits assumed): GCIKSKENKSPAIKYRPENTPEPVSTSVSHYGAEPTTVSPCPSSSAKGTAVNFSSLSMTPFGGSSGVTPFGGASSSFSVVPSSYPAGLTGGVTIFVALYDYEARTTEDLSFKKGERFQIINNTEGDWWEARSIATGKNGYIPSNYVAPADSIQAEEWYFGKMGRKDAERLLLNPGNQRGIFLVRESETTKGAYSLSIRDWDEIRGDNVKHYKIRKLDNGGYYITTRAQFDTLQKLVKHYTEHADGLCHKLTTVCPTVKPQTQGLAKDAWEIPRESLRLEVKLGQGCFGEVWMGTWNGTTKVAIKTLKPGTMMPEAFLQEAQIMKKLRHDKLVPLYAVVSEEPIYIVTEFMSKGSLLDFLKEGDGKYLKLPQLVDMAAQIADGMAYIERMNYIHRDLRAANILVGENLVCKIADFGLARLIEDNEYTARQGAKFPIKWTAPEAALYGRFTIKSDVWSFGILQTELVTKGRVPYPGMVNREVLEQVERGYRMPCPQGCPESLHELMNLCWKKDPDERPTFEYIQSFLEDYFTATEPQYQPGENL

[3] = target: Tyrosine-protein kinase SYK (Homo sapiens) (UniProt P43405); test: Inhibition of human SYK assessed as residual activity at 10 uM relative to control
[4] = target: Mitogen-activated protein kinase 8 (Homo sapiens) (UniProt P45983); test: Inhibition of human JNK1 assessed as residual activity at 10 uM relative to control
Mitogen-activated protein kinase 8 (Homo sapiens), sequence (P45983 whole entry): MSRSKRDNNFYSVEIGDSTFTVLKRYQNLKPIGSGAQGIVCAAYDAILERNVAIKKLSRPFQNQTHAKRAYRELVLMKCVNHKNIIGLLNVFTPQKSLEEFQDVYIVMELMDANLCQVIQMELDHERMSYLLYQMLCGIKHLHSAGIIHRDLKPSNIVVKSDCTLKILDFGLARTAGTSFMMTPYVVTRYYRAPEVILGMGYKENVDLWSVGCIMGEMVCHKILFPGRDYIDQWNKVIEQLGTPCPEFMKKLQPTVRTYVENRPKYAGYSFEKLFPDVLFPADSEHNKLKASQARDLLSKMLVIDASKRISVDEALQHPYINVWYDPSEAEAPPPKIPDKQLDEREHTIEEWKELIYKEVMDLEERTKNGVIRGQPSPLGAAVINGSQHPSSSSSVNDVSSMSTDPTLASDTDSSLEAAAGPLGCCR

[5] = target: T2, Serine/threonine-protein kinase D1 (Homo sapiens) (UniProt Q15139); test: Inhibition of human PKD1 assessed as residual activity at 1 uM relative to control
T2 sequence (whole entry): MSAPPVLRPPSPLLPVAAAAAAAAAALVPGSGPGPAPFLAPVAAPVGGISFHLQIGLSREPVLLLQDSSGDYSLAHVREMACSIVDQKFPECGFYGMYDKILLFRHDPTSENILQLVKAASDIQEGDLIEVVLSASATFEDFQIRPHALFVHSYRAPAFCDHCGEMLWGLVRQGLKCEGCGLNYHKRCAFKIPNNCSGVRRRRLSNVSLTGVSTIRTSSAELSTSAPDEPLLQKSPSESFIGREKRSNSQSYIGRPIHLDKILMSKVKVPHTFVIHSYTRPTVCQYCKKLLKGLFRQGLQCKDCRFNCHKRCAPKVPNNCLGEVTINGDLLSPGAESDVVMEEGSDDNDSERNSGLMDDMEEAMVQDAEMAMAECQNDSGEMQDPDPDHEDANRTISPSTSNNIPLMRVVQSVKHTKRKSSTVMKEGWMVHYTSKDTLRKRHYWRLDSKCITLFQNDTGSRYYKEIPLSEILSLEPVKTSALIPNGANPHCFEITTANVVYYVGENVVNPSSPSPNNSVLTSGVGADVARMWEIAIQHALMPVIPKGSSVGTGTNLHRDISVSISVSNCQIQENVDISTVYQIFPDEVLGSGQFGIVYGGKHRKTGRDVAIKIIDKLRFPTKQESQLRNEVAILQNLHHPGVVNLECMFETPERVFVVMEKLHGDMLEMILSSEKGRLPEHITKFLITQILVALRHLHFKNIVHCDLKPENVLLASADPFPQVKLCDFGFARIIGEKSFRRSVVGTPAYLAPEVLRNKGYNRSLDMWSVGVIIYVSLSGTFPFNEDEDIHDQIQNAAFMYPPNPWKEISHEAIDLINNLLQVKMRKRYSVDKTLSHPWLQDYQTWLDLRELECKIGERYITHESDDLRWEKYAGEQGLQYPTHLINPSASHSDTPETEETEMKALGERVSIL

[6] = target: T3, Serine/threonine-protein kinase Chk1 (Homo sapiens) (UniProt O14757); test: Inhibition of human CHK1 assessed as residual activity at 1 uM relative to control
T3 sequence (whole entry): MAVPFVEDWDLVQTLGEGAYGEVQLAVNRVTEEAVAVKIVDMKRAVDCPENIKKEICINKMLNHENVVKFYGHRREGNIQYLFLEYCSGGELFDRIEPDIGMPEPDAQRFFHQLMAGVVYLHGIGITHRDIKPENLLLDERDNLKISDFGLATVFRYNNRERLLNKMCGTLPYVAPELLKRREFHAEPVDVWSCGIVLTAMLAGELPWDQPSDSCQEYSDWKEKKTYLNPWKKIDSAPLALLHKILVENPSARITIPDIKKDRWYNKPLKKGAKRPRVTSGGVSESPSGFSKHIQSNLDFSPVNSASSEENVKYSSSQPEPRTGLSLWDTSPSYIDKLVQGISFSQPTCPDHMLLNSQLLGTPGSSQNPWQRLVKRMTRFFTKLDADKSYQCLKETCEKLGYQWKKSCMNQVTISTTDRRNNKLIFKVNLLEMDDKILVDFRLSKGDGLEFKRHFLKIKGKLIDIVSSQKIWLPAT

[7] = target: Serine/threonine-protein kinase Chk2 (Homo sapiens) (UniProt O96017); test: Inhibition of human CHK2 assessed as residual activity at 1 uM relative to control
Serine/threonine-protein kinase Chk2 (Homo sapiens), sequence (O96017 whole entry): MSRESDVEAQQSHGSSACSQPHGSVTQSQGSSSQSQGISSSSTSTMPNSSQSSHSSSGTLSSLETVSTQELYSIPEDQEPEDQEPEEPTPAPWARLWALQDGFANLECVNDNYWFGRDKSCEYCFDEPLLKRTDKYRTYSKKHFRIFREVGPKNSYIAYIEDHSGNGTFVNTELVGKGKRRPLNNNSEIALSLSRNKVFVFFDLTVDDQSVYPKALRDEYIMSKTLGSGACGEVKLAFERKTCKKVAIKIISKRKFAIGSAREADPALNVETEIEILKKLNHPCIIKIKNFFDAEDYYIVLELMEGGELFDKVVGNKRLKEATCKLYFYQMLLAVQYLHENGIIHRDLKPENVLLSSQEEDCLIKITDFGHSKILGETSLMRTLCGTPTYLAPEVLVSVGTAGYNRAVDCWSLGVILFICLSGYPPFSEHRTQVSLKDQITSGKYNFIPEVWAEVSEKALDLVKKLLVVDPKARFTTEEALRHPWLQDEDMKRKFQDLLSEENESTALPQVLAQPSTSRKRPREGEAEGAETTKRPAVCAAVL

[8] = target: T4, Serine/threonine-protein kinase Sgk1 (Homo sapiens) (UniProt O00141); test: Inhibition of human SGK1 assessed as residual activity at 10 uM relative to control
T4 sequence (whole entry): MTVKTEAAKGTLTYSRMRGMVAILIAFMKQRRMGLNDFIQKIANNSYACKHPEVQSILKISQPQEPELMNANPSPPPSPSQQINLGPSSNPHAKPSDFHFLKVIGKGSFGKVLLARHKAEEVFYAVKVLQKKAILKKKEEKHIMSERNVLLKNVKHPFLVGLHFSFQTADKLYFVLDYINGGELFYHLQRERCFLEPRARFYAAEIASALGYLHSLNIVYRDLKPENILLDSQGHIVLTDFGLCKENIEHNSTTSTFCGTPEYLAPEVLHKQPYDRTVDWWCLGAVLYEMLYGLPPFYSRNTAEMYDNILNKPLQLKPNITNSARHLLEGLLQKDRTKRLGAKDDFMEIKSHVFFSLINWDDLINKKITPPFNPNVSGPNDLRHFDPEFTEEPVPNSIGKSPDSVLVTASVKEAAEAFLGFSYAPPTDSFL

[9] = target: Serine/threonine-protein kinase N2 (Homo sapiens) (UniProt Q16513); test: Inhibition of human PRK2 assessed as residual activity at 10 uM relative to control
Serine/threonine-protein kinase N2 (Homo sapiens), sequence (Q16513 whole entry, looked up): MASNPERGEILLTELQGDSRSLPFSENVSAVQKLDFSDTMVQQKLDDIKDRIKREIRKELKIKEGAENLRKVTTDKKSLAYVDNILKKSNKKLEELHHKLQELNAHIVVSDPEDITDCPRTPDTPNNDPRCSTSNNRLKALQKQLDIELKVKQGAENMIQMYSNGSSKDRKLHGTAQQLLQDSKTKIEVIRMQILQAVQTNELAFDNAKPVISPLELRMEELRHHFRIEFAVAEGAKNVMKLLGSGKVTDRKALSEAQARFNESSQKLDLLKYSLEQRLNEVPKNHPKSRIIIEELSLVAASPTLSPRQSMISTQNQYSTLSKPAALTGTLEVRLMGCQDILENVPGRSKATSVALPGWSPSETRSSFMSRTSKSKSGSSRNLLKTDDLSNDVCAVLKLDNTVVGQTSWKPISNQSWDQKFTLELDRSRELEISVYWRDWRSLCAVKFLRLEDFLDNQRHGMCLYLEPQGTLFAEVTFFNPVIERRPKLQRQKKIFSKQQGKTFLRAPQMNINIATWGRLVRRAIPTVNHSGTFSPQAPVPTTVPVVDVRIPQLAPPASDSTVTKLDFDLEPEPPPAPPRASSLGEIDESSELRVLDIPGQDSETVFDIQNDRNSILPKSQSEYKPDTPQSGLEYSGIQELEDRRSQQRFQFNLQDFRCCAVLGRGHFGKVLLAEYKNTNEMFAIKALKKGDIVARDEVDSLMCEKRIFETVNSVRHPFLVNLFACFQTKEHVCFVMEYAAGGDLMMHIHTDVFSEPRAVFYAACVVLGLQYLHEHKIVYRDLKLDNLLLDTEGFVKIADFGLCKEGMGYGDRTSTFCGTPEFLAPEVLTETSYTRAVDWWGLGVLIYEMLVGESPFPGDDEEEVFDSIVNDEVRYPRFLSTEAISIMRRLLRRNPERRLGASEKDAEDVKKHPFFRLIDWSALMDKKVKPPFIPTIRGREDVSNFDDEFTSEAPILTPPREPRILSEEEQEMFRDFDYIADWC

[10] = target: T2, Serine/threonine-protein kinase D1 (Homo sapiens); test: Inhibition of human PKD1 assessed as residual activity at 10 uM relative to control
Oryctolagus cuniculus = species: Oryctolagus cuniculus; test: Inhibition of rabbit MKK1 assessed as residual activity at 10 uM relative to control
[11] = target: MAP/microtubule affinity-regulating kinase 3 (Homo sapiens) (UniProt P27448); test: Inhibition of human MARK3 assessed as residual activity at 10 uM relative to control
MAP/microtubule affinity-regulating kinase 3 (Homo sapiens), sequence (P27448 whole entry, looked up): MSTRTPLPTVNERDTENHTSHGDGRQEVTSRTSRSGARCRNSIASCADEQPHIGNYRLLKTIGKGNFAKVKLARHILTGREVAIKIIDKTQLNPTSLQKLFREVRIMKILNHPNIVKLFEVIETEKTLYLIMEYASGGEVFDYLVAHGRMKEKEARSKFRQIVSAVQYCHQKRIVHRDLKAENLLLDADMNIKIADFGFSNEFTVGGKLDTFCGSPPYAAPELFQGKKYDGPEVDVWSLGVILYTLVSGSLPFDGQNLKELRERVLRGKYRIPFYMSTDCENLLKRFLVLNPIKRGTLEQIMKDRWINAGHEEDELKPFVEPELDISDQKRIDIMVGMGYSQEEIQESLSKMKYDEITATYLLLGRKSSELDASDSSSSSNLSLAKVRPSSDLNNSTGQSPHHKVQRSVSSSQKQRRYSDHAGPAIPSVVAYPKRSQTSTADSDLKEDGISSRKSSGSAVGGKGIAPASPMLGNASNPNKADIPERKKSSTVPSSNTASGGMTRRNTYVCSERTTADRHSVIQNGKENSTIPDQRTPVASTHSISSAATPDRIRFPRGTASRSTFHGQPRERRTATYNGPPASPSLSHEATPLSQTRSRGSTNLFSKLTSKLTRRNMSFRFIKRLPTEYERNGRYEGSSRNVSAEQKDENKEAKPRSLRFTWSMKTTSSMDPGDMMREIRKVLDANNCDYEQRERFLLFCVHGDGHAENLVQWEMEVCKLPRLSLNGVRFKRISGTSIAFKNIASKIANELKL

[12] = target: Tyrosine-protein kinase CSK (Homo sapiens) (UniProt P41240); test: Inhibition of human CSK assessed as residual activity at 10 uM relative to control
Tyrosine-protein kinase CSK (Homo sapiens), sequence (P41240 2-450 limits assumed): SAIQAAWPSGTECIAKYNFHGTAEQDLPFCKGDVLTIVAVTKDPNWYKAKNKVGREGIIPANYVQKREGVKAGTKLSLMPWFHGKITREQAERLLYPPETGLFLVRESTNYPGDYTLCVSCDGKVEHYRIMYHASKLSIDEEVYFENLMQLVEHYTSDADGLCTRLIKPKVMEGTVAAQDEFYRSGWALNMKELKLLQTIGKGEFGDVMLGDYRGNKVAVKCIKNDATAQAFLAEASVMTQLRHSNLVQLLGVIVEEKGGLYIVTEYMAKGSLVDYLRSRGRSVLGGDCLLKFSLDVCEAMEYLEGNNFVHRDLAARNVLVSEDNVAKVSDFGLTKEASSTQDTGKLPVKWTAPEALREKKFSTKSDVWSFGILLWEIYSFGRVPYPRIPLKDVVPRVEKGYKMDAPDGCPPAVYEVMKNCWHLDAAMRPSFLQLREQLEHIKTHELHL

Activity [1]	Activity [2]	Activity [3]	Activity [4]	Activity [5]	Activity [6]	Activity [7]	Activity [8]	Activity [9]	Activity [10]	Activity (Oryctolagus cuniculus)	Activity [11]	Activity [12]	SMILES
82.4%	78.2%	98.7%	70.3%	80.7%	80.6%	89.5%	21.4%	96.5%	75.3%	66.8%	79.2%	104%	CC(=O)Nc1nccc(-c2c(-c3ccccc3)noc2C)n1
82%	54%	104%	92%	76%	92%	96%	82%	76%	99%	103%	62%	80%	CCCC(=O)Nc1n[nH]c2ncc(-c3cccnc3)cc12
94.5%	56.9%	55.9%	66.9%	108%	31.5%	68.5%	61.9%	42.2%	44.3%	45.9%	17.9%	48%	CC(=O)Nc1cccc(-c2cnc3[nH]nc(C)c3c2)c1
